# Data: patent publication US7973043B2, “Combination therapy for depression, prevention of suicide, and various medical and psychiatric conditions” (priority 2002, dated 2011)
# Tests used:
# [1] = antipsychotic alone; cited from earlier work
# [2] = cited from earlier work; for annual risk of TD as fraction of the risk associated with haloperidol: relative to haloperidol
# [3] = combined data from many studies; cited from earlier work
# [4] = molecular target: D2 receptor (Homo sapiens, UniProt P14416); settings: relative to risperidone and olanzapine; cited from earlier work
# Sequence of D2 receptor (P14416 whole entry): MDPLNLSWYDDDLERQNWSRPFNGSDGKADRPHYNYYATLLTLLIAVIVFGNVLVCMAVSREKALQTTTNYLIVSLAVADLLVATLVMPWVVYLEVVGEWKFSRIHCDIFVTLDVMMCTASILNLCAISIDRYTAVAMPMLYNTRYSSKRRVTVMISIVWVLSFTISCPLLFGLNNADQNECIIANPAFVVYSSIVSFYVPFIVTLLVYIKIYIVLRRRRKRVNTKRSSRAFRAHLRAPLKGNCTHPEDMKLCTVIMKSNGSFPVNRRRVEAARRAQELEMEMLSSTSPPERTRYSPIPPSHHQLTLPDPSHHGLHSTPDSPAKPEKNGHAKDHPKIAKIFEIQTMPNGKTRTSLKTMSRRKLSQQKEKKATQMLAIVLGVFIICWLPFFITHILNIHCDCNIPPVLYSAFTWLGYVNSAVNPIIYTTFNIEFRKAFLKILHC
# [5] = before the X-ray changes; cited from earlier work
smiles,measurement,setting,value
Cc1nc2n(c(=O)c1CCN1CCC(c3noc4cc(F)ccc34)CC1)CCCC2 [risperidone],activity in the chronic mild stress (CMS) model,[1],ineffective
same,annual risk of TD as fraction of the risk associated with haloperidol,[2],⅙
OCCOCCN1CCN(C2=Nc3ccccc3Sc3ccccc32)CC1 [quetiapine],adverse effect,hypothetical cases,lightheadedness
same,time until suicidality vanishes,"second hypothetical case, MDD, quetiapine 50 mg added to paroxetine 20 mg q d",24 h
same,relative risk of drug-induced acute EPS in declining order,[3],risperidone >ziprasidone >=olanzapine >quetiapine
same,dissociation from the dopamine receptor,[4],fast dissociation
N[C@@H]1CONC1=O [DCS],antidepressant effect,[5],prompt antidepressant effects
O=C1Cc2cc(CCN3CCN(c4nsc5ccccc45)CC3)c(Cl)cc2N1 [ziprasidone],relative risk of drug-induced acute EPS in declining order,[3],risperidone >ziprasidone >=olanzapine >quetiapine
Cc1cc2c(s1)Nc1ccccc1N=C2N1CCN(C)CC1 [olanzapine],relative risk of drug-induced acute EPS in declining order,[3],risperidone >ziprasidone >=olanzapine >quetiapine
same,One year risk of TD,[2]; all patients,0.52%
same,annual risk of TD as fraction of the risk associated with haloperidol,[2],about 1/12
